Activity calls are given as the source filed them. The rule behind the calls is not given here.
Experiments:
[1] = test system: H9c2; assay: Cardioprotective activity against CoCl2-induced cellular hypoxia injury in rat H9c2 cells assessed as increase in cell viability at 30 uM incubated for 24 hrs by CCK-8 assay; assay type: functional, cell-based
[2] = test system: H9c2; assay: Cardioprotective activity against CoCl2-induced cellular hypoxia injury in rat H9c2 cells assessed as cell viability at 0.625 uM incubated for 24 hrs by CCK-8 assay (reference value: 51.80 +/- 2.58 %); assay type: functional; details: read-out: Activity
[3] = test system: H9c2; assay: Cardioprotective activity against CoCl2-induced cellular hypoxia injury in rat H9c2 cells assessed as cell viability at 1.25 uM incubated for 24 hrs by CCK-8 assay (reference value: 51.80 +/- 2.58 %); assay type: functional; details: read-out: Activity
[4] = test system: H9c2; assay: Cardioprotective activity against CoCl2-induced cellular hypoxia injury in rat H9c2 cells assessed as cell viability at 2.5 uM incubated for 24 hrs by CCK-8 assay (reference value: 51.80 +/- 2.58 %); assay type: functional; details: read-out: Activity
[5] = test system: H9c2; assay: Cardioprotective activity against CoCl2-induced cellular hypoxia injury in rat H9c2 cells assessed as cell viability at 5 uM incubated for 24 hrs by CCK-8 assay (reference value: 51.80 +/- 2.58 %); assay type: functional; details: read-out: Activity
[6] = test system: H9c2; assay: Cardioprotective activity against CoCl2-induced cellular hypoxia injury in rat H9c2 cells assessed as cell viability at 10 uM incubated for 24 hrs by CCK-8 assay (reference value: 51.80 +/- 2.58 %); assay type: functional; details: read-out: Activity

Structure (SMILES)	Activity [1]	viability at 0.625 µM [2] [%]	viability at 1.25 µM [3] [%]	viability at 2.5 µM [4] [%]	viability at 5 µM [5] [%]	viability at 10 µM [6] [%]
CC(C)(O)[C@@H]1CC[C@@](C)([C@H]2CC[C@]3(C)[C@@H]2[C@H](O)C[C@@H]2[C@@]4(C)CC[C@H](OC(=O)c5ccc(N=C=S)cc5)C(C)(C)[C@@H]4CC[C@]23C)O1	inactive	62.2	62.2	67.1	70	77.1
CC(C)=CCC[C@](C)(O)[C@H]1CC[C@]2(C)[C@@H]1[C@H](O)C[C@@H]1[C@@]3(C)CC[C@H](O)C(C)(C)[C@@H]3CC[C@]12C	inactive	52.5	63	67.5	67.5	68.8
C=CCSSCCC(=O)O[C@H]1CC[C@]2(C)[C@H]3C[C@@H](O)[C@@H]4[C@@H]([C@]5(C)CC[C@H](C(C)(C)O)O5)CC[C@@]4(C)[C@]3(C)C[C@H](O)[C@H]2C1(C)C	inactive	68.1	64.5	62.9	66.5	69.7
CC(C)(O)[C@H]1CC[C@@](C)([C@H]2CC[C@]3(C)[C@@H]2[C@H](O)C[C@@H]2[C@@]4(C)CC[C@H](O)C(C)(C)[C@@H]4CC[C@]23C)O1	inactive	68.7	66.4	65.4	66.9	75.5
CC(C)(O)[C@H]1CC[C@@](C)([C@H]2CC[C@]3(C)[C@@H]2[C@H](O)C[C@@H]2[C@@]4(C)CC[C@H](O)C(C)(C)[C@@H]4[C@@H](O)C[C@]23C)O1	inactive	56.5	55.6	57	55.6	61.5
CC(C)(O)[C@H]1CC[C@@](C)([C@H]2CC[C@]3(C)[C@@H]2[C@H](O)C[C@@H]2[C@@]4(C)CC[C@H](OC(=O)CCC(=O)Oc5ccc(-c6cc(=S)ss6)cc5)C(C)(C)[C@@H]4[C@@H](O)C[C@]23C)O1	inactive	67.3	66.2	68.4	68.1	68.3
C=CCSSCCC(=O)O	inactive	51.7	57.5	68.4	71	80.3
CC(C)(O)[C@H]1CC[C@@](C)([C@H]2CC[C@]3(C)[C@@H]2[C@H](O)C[C@@H]2[C@@]4(C)CC[C@H](OC(=O)CCC(=O)Oc5ccc(-c6nc(=O)ss6)cc5)C(C)(C)[C@@H]4[C@@H](O)C[C@]23C)O1	inactive	65.7	72.5	76	77.3	81.5
CC(C)(O)[C@H]1CC[C@@](C)([C@H]2CC[C@]3(C)[C@@H]2[C@H](O)C[C@@H]2[C@@]4(C)CC[C@H](OC(=O)CCC(=O)Oc5ccc(-c6cc(=S)ss6)cc5)C(C)(C)[C@@H]4CC[C@]23C)O1	inactive	65.1	66.8	67.5	69.5	72.5
O=C(O)CCC(=O)Oc1ccc(-c2nc(=O)ss2)cc1	inactive	52.4	55.1	55.9	57	57.2
CC(C)(O)[C@@H]1CC[C@@](C)([C@H]2CC[C@]3(C)[C@@H]2[C@H](O)C[C@@H]2[C@@]4(C)CC[C@H](OC(=O)c5ccc(N=C=S)cc5)C(C)(C)[C@@H]4[C@@H](O)C[C@]23C)O1	inactive	56.9	55.5	58.8	61.4	63.1
CC(C)(O)[C@@H]1CC[C@@](C)([C@H]2CC[C@]3(C)[C@@H]2[C@H](O)C[C@@H]2[C@@]4(C)CC[C@H](OC(=O)CCC(=O)Oc5ccc(-c6cc(=S)ss6)cc5)C(C)(C)[C@@H]4CC[C@]23C)O1	inactive	68.4	71.4	79.6	80	82.2
CC(C)(O)[C@H]1CC[C@@](C)([C@H]2CC[C@]3(C)[C@@H]2[C@H](O)C[C@@H]2[C@@]4(C)CC[C@H](OC(=O)c5ccc(N=C=S)cc5)C(C)(C)[C@@H]4CC[C@]23C)O1	inactive	59.9	61.6	67.3	68.3	72.9
C=CCSSCCC(=O)O[C@H]1CC[C@]2(C)[C@H]3C[C@@H](O)[C@@H]4[C@@H]([C@@](C)(O)CCC=C(C)C)CC[C@@]4(C)[C@]3(C)CC[C@H]2C1(C)C	inactive	46	50.8	42.5	60.6	62.7
C=CCSSCCC(=O)O[C@H]1CC[C@]2(C)[C@H]3C[C@@H](O)[C@@H]4[C@@H]([C@]5(C)CC[C@H](C(C)(C)O)O5)CC[C@@]4(C)[C@]3(C)CC[C@H]2C1(C)C	inactive	65.7	72.3	73.6	76.9	74.2
O=C(Nc1ccccc1-c1cn2c(CN3CCNCC3)csc2n1)c1cnc2ccccc2n1	–	71.7	73.3	80.6	83.3	88.4
C=CCSSCCC(=O)O[C@H]1CC[C@]2(C)[C@H]3C[C@@H](O)[C@@H]4[C@@H]([C@@](C)(O)CCC=C(C)C)CC[C@@]4(C)[C@]3(C)C[C@H](O)[C@H]2C1(C)C	inactive	49	58.4	64.4	63.1	65.7
CC(C)=CCC[C@](C)(O)[C@H]1CC[C@]2(C)[C@@H]1[C@H](O)C[C@@H]1[C@@]3(C)CC[C@H](OC(=O)c4ccc(N=C=S)cc4)C(C)(C)[C@@H]3CC[C@]12C	inactive	54.7	61	60.7	67.5	61.5
O=C(O)c1ccc(N=C=S)cc1	inactive	51.1	53.7	59.3	59.5	63.5
CC(C)=CCC[C@](C)(O)[C@H]1CC[C@]2(C)[C@@H]1[C@H](O)C[C@@H]1[C@@]3(C)CC[C@H](OC(=O)c4ccc(N=C=S)cc4)C(C)(C)[C@@H]3[C@@H](O)C[C@]12C	inactive	50.9	55.2	54	56.6	54.8

— ChEMBL document CHEMBL6120941, “Discovery of SIRT1-Activating Hydrogen Sulfide Donating Derivatives for Efficient Resistant of Myocardial Ischemic Injury” (J Med Chem, 2024)
